Results from PubChem BioAssay (NCI).
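Where inhibition never reached the appropriate level, the endpoint shown equals the highest concentration tested. Otherwise, values were interpolated linearly from a five-concentration, 48-hour dose response in 96-well plates. GI50 is the concentration that inhibits growth by half. TGI: concentration producing complete growth inhibition.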

Experiments:
Experiment in all cases: NCI anticancer screen, dose series, 48 h
SK-MEL-28 melanoma = tested on: SK-MEL-28 melanoma
SR leukemia = tested on: SR leukemia
MDA-MB-435 = tested on: MDA-MB-435
SF-295 CNS = tested on: SF-295 CNS
PC-3 prostate = tested on: PC-3 prostate
U251 CNS = tested on: U251 CNS
K-562 leukemia = tested on: K-562 leukemia
RXF 393 renal = tested on: RXF 393 renal
LOX IMVI melanoma = tested on: LOX IMVI melanoma
HCC-2998 colon = tested on: HCC-2998 colon

For `Cc1cc(NC(=O)NCCOc2ccc(N3C(N)=NC(N)=NC3(C)C)cc2Cl)ccc1S(=O)(=O)F`, the GI50 (SK-MEL-28 melanoma) was 3.59 µM, the TGI (SK-MEL-28 melanoma) was over 91.7 µM and the GI50 (SR leukemia) was 493 nM. It also gave a TGI (SR leukemia) of 40 µM, a GI50 (MDA-MB-435) of 0.626 µM and a TGI (MDA-MB-435) of over 100 µM. It also gave a GI50 (SF-295 CNS) of 5.16 µM, a TGI (SF-295 CNS) of over 85.1 µM and a GI50 (PC-3 prostate) of 143 nM. The TGI (PC-3 prostate) was 22.3 µM, the GI50 (U251 CNS) was 0.716 µM and the TGI (U251 CNS) was over 72.9 µM. It also gave a GI50 (K-562 leukemia) of 599 nM, a TGI (K-562 leukemia) of over 100 µM and a GI50 (RXF 393 renal) of 2050 nM. The TGI (RXF 393 renal) was over 100 µM, the GI50 (LOX IMVI melanoma) was 0.74 µM and the TGI (LOX IMVI melanoma) was over 100 µM. The GI50 (HCC-2998 colon) was 2.96 µM and the TGI (HCC-2998 colon) was over 100 µM.
`O=[N+]([O-])c1ccc(Sc2cccc[n+]2[O-])c2nonc12` showed a GI50 (SK-MEL-28 melanoma) of 2.47 µM, a TGI (SK-MEL-28 melanoma) of 6.31 µM and a GI50 (SR leukemia) of 703 nM. It also gave a TGI (SR leukemia) of over 100 µM, a GI50 (MDA-MB-435) of 6.24 µM and a TGI (MDA-MB-435) of 20.1 µM. The GI50 (SF-295 CNS) was 3.37 µM, the TGI (SF-295 CNS) was 43.7 µM and the GI50 (PC-3 prostate) was 2600 nM. For the same compound, the TGI (PC-3 prostate) was 13 µM, the GI50 (U251 CNS) was 3.56 µM and the TGI (U251 CNS) was 17.6 µM. It also gave a GI50 (K-562 leukemia) of 2100 nM, a TGI (K-562 leukemia) of over 100 µM and a GI50 (RXF 393 renal) of 2120 nM. For the same compound, the TGI (RXF 393 renal) was 6.32 µM, the GI50 (LOX IMVI melanoma) was 3.28 µM and the TGI (LOX IMVI melanoma) was 11.7 µM. It also gave a GI50 (HCC-2998 colon) of 4.58 µM and a TGI (HCC-2998 colon) of 16.9 µM.
With `CC(=O)c1cc2c(Br)cccc2oc1=O` the TGI (SK-MEL-28 melanoma) was over 100 µM, the TGI (SR leukemia) was over 100 µM and the TGI (MDA-MB-435) was over 100 µM. The TGI (SF-295 CNS) was over 100 µM, the TGI (PC-3 prostate) was over 100 µM and the TGI (U251 CNS) was over 100 µM. The TGI (K-562 leukemia) was over 100 µM, the TGI (RXF 393 renal) was over 100 µM and the TGI (LOX IMVI melanoma) was over 100 µM. The TGI (HCC-2998 colon) was over 100 µM.
In the case of `Nc1n[n+]([O-])c2ccc(Cl)cc2[n+]1[O-]`, the TGI (SK-MEL-28 melanoma) is reported as 67.7 µM, the TGI (SR leukemia) is reported as over 100 µM and the TGI (MDA-MB-435) is reported as 74.2 µM. It also gave a TGI (SF-295 CNS) of over 100 µM, a TGI (PC-3 prostate) of over 100 µM and a TGI (U251 CNS) of 67.3 µM. The TGI (K-562 leukemia) was over 100 µM, the TGI (RXF 393 renal) was 54.1 µM and the TGI (LOX IMVI melanoma) was over 100 µM. It also gave a TGI (HCC-2998 colon) of 55.5 µM.
For `Nc1c(C(=O)c2cccc(-c3cccnc3)c2)cnn1-c1ccc(F)cc1`, the GI50 (SK-MEL-28 melanoma) was over 25 µM, the TGI (SK-MEL-28 melanoma) was over 25 µM and the GI50 (SR leukemia) was over 25000 nM. The TGI (SR leukemia) was over 25 µM, the GI50 (MDA-MB-435) was over 25 µM and the TGI (MDA-MB-435) was over 25 µM. The GI50 (SF-295 CNS) was over 25 µM, the TGI (SF-295 CNS) was over 25 µM and the GI50 (PC-3 prostate) was over 25000 nM. It also gave a TGI (PC-3 prostate) of over 25 µM, a GI50 (U251 CNS) of over 25 µM and a TGI (U251 CNS) of over 25 µM. It also gave a GI50 (K-562 leukemia) of over 25000 nM, a TGI (K-562 leukemia) of over 25 µM and a GI50 (RXF 393 renal) of over 18300 nM. For the same compound, the TGI (RXF 393 renal) was over 25 µM, the GI50 (LOX IMVI melanoma) was over 25 µM and the TGI (LOX IMVI melanoma) was over 25 µM. The GI50 (HCC-2998 colon) was over 25 µM and the TGI (HCC-2998 colon) was over 25 µM.
`O=C1OC(c2ccc([N+](=O)[O-])cc2)=N/C1=C\c1ccc(Cl)cc1` was tested, and the TGI (SK-MEL-28 melanoma) was over 100 µM, the TGI (SR leukemia) was over 100 µM and the TGI (MDA-MB-435) was over 100 µM. For the same compound, the TGI (SF-295 CNS) was over 100 µM, the TGI (PC-3 prostate) was over 100 µM and the TGI (U251 CNS) was over 100 µM. For the same compound, the TGI (K-562 leukemia) was over 100 µM, the TGI (RXF 393 renal) was over 100 µM and the TGI (LOX IMVI melanoma) was over 100 µM. The TGI (HCC-2998 colon) was over 100 µM.
For `C[C@H]1C[C@@H](n2c(Nc3ccc(OC(F)(F)F)cc3)nc3cc(CCC(=O)O)ccc32)CC(C)(C)C1`, the GI50 (SK-MEL-28 melanoma) was 8.26 µM, the TGI (SK-MEL-28 melanoma) was 22.5 µM and the GI50 (SR leukemia) was 6230 nM. The TGI (SR leukemia) was 36.6 µM, the GI50 (MDA-MB-435) was 10.4 µM and the TGI (MDA-MB-435) was 22.9 µM. The GI50 (SF-295 CNS) was 4.85 µM, the TGI (SF-295 CNS) was 19.1 µM and the GI50 (PC-3 prostate) was 11900 nM. The TGI (PC-3 prostate) was 27.9 µM, the GI50 (U251 CNS) was 11.2 µM and the TGI (U251 CNS) was 28.1 µM. It also gave a GI50 (K-562 leukemia) of 11900 nM, a TGI (K-562 leukemia) of 37.7 µM and a GI50 (RXF 393 renal) of 11300 nM. For the same compound, the TGI (RXF 393 renal) was 25.2 µM, the GI50 (LOX IMVI melanoma) was 11.8 µM and the TGI (LOX IMVI melanoma) was 25.9 µM. For the same compound, the GI50 (HCC-2998 colon) was 6.68 µM and the TGI (HCC-2998 colon) was 20.8 µM.
